Data set [1] deals with SKBR3 Her2-positive breast carcinoma cells. To be noted: cited from earlier work.
Data set [2] relates to Her2 expression in SKBR3 cells. To be noted: cited from earlier work.
The next data set deals with CAL27 HNSCC cells. Nature of the data set: Xenograft model of HNSCC, CAL27 in athymic nude mice.
Data set [3] concerns SCC25 cells. Nature of the data set: Cell proliferation (CCK-8 reagent), SCC25. The class given is cell-based. To be noted: Homo sapiens, read-out: IC50 for cell proliferation. The procedure: (§1) A. EGFR and Her2 levels. […] Cell lysates were prepared and determined for EGFR and Her2 protein levels by immunoblot analyses. B. Cell proliferation. […] (ESXm) for 24 hours. Cell proliferation was assessed using the CCK-8 reagent to detect metabolic active cells. Dose-response curves and IC50 values were generated using GraphPad Prism 4.0 (GraphPad Software, La Jolla, Calif.). […] C. Cell invasion. Cell invasion was determined as described from the cell invasion assay kit (Chemicon International, Temecula, Calif.). […] An aliquot (1×10^5 cells) of the prepared cell suspension was added to the top chamber and 10% FBS was added to the bottom chamber. After 24 hours, non-invading cells were gently removed from the interior of the inserts with a cotton-tipped swab. Invasive cells were stained and visualized. A representative field for each experimental condition is presented. D. Cell migration. Cell migration was determined using the wound healing assay. Cells were seeded and allowed to grow until confluence. […] A representative field for each experimental condition at 0 hour and 24 hours is presented.
(§2) Cell proliferation was assessed using the CCK-8 reagent to detect metabolic active cells. Dose-response curves and IC50 values were generated using GraphPad Prism 4.0 (GraphPad Software, La Jolla, Calif.).

Data set [4] deals with EGFR and Her2 levels in CAL27 cells. As to conditions: 24 hours, immunoblot. The procedure:
(§3) A. EGFR and Her2 levels. […] Cell lysates were prepared and determined for EGFR and Her2 protein levels by immunoblot analyses. B. Cell proliferation. […] Cell proliferation was assessed using the CCK-8 reagent to detect metabolic active cells. Dose-response curves and IC50 values were generated using GraphPad Prism 4.0 (GraphPad Software, La Jolla, Calif.). […] C. Cell invasion. Cell invasion was determined as described from the cell invasion assay kit (Chemicon International, Temecula, Calif.). […] An aliquot (1×10^5 cells) of the prepared cell suspension was added to the top chamber and 10% FBS was added to the bottom chamber. After 24 hours, non-invading cells were gently removed from the interior of the inserts with a cotton-tipped swab. Invasive cells were stained and visualized. A representative field for each experimental condition is presented. D. Cell migration. Cell migration was determined using the wound healing assay. Cells were seeded and allowed to grow until confluence. […] A representative field for each experimental condition at 0 hour and 24 hours is presented.

Data set [5] has as its system CAL27 cells. As to conditions: 12.5 μmol/L. On the procedure: as §3
For data set [6], the system named is SCC25 cells. As to conditions: 15 μmol/L. On the procedure: as §3
Data set [7] relates to EGFR and Her2 levels in SCC25 cells. As to conditions: 24 hours, immunoblot. The procedure: as §3
Data set [8] concerns CAL27 cells. Nature of the data set: Cell proliferation (CCK-8 reagent), CAL27. As to conditions: Homo sapiens, read-out: IC50 for cell proliferation. The class given is cell-based. On the procedure: as §1, §2
A short description of data set [9]: Precipitation in cell culture media. As to conditions: higher concentrations. The class given is physicochemical.
Data set [10] concerns phosphorylated erbB2 levels in SkBr3 cells.
Description: ErbB2 and p-erbB2 ELISA: ELISA assays were performed based on those published elsewhere.[4] […] After 24 hours, media was removed carefully and cells were fixed and permeabilized with cold (−20° C.) methanol. The cells were then washed twice with TBST, blocked for 2 hours at room temperature with superblock (TBST solution from Pierce), incubated with the primary antibody overnight at 4° C. (as a 1:500 solution in superblock). Cells were then washed twice more with TBST and incubate with secondary antibody for 2 hours at room temperature (as a 1:1000 solution in superblock). After being washed 3 times with TBST, Slow TMB (Pierce) was added to measure antibody levels in accordance with the manufacturer's instructions and the absorbance at 370 nm was measured. The cells were washed 3 more times with TBST and total protein levels were measured at 560 nm using BCA reagent (Pierce). […] The resulting ratios were then normalized to cells treated with DMSO.

Each structure is given as a SMILES string. Read-outs that look alike come from different tables or passages of the source.

Here are results for 5 molecules from US20150017156A1, “ESX-MEDIATED TRANSCRIPTION MODULATORS AND RELATED METHODS” (THE OHIO STATE UNIVERSITY, priority 2011, published 2015).

Excerpt for SkBr3 (erbB2+) cells: Isobolograms were generated by computing dose fractions directly from the IC50s. Dose fraction is defined as the dose of one component in a combination required to exert a given effect (usually IC50, as in this case) divided by the dose of that component in isolation required to exert the same effect. Thus each combination reported has two dose fraction measurements (eg. dose fraction it and dose fraction lapatinib) that define the combinations x/y coordinates on the isobologram.
Dose fraction of A for combination AB=IC50(A in AB)/IC50(A in isolation)
Dose fraction of B for combination AB=IC50(B in AB)/IC50(B in isolation)
The sum of these x/y coordinates are the combination index. By definition, the CI for either agent in isolation is 1. For the null hypothesis (in which both agents act as though they are equivalent doses of the same agent) the CI will be 1. For combinations where the CI<1, synergy is present.
CI(combination index)=dose fraction A+dose fraction B.
For the experiments used to generate dose-effect curves for the isobolograms and selectivity experiments, cells were plated at 3000 cells per well in 96 well plates. […] The day after the final treatment, cell viability was measured using WST-1 reagent (Roche) in accordance with the manufacturer's instructions. […]

As to `Cc1ccc(S(=O)(=O)n2ccc3c(OCC(O)CN(CCCCCN)C(=O)N4CCC(C5CCN(C(=O)C67CC8CC(CC(C8)C6)C7)CC5)CC4)cccc32)cc1` (stereo not shown) [Wrenchnolol, wrenchnolol, reference compound], the cell proliferation result in data set [1] is given as “inhibited cell proliferation”. For the same molecule, the Her2 expression entry in [2] was “decreased Her2 expression”.
With `CN(C)C/C=C/C(=O)Nc1cc2c(Nc3ccc(F)c(Cl)c3)ncnc2cc1O[C@H]1CCOC1` [afatinib], in the data set on CAL27 HNSCC cells, the mean tumor volume is 43 mm^3 and the “mean tumor volume, single-agent afatinib arm compared to the combination treatment arm” value is recorded as 2.1 fold.
On to `CC(C)C[C@]1(CCO)C[C@H](CN=[N+]=[N-])ON1Cc1ccc(-c2ccccc2)cc1` [biphenyl isoxazolidine], for which the IC50 in the data set with SCC25 cells [3] (SCC-25, 24 h) is 50.3 µM; in the data set on CAL27 cells [8] (CAL-27, 24 h), 46.8 µM. The “EGFR and Her2 levels” value in [4] and in [7] was “dose-dependent decrease” each time. The Cell invasion entry in the data set on CAL27 cells [5] and in the data set on SCC25 cells [6] was “dramatically suppressed” each time. The Cell migration result with CAL27 cells [5] and in the data set with SCC25 cells [6] was “dramatically suppressed” in each case. For the same molecule, in data set [1], the cell proliferation result is recorded as “inhibited cell proliferation”. Besides, the Her2 expression result in data set [2] is “decreased Her2 expression”.
With `C#Cc1cccc(Nc2ncnc3cc(OCCOC)c(OCCOC)cc23)c1` [erlotinib], in data set [9], the “precipitation out of cell culture media” value was “precipitate out of cell culture media at higher concentrations”.
As for `CS(=O)(=O)CCNCc1ccc(-c2ccc3ncnc(Nc4ccc(OCc5cccc(F)c5)c(Cl)c4)c3c2)o1` [lapatinib, reference compound], the IC50 in the data set with SkBr3 (erbB2+) cells amounted to 0.048 ± 0.017 µM; with SCC25 cells [3] (SCC-25, SCC25 cells, 24 hours of treatment, single agent), 11.9 µM; in the data set with CAL27 cells [8] (CAL-27, CAL27 cells, 24 hours of treatment, single agent), 11.8 µM. Besides, the “effects on erbB2 and phosphorylated erbB2 levels as single agents” value in [10] is “moderate effects”.
